Where two headings read alike, the source gives them in different places.
Tests used:
[1] = target: T1, human androgen receptor (hAR) (Homo sapiens, UniProt P10275); assay: Functional response (transactivation) test in HALP2 cells (HeLa stably expressing hAR and ARE-luciferase reporter); assay type: cell-based; settings: for Emax: HeLa, read-out: % effect relative to DHT (100%)
T1 construct: expressed in transfected cells
T1 sequence (P10275 1-920): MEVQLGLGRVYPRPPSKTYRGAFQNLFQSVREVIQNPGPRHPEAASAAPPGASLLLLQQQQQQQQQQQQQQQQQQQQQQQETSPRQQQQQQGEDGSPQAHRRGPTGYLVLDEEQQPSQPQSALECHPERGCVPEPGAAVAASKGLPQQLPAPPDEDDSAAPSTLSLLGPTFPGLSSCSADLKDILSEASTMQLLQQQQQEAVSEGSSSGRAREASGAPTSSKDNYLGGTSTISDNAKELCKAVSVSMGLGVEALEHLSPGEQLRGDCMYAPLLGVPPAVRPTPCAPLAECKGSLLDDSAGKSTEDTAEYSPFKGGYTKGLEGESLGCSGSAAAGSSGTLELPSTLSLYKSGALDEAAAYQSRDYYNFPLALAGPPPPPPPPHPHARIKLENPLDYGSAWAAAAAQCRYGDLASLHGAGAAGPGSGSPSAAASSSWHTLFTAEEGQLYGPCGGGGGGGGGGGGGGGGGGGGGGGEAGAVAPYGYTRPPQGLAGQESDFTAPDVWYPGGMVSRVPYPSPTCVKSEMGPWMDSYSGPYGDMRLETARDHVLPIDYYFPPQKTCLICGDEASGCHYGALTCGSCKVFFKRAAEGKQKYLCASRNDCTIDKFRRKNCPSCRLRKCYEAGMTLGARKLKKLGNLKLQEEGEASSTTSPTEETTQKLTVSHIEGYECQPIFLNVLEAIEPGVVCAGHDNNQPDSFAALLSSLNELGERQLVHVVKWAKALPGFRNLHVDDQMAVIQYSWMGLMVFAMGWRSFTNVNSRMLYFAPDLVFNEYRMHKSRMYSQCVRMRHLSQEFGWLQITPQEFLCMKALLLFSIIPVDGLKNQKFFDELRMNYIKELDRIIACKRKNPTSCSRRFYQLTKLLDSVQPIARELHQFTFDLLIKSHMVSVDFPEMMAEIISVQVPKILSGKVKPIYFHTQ
From the text: This test constitutes a method of identifying pure or partial agonists which mimic the effects of natural hormones, such as DHT (dihydrotestosterone) in the present case or, on the other hand, antagonists which inhibit them.
For this transactivation test, plasmids encoding a reporter gene and the human androgen receptor (hAR) are introduced together by transfection into the HeLa cell line. The reporter plasmid contains luciferase cDNA under the control of the AREs contained in the promoter sequences of the probasin gene (3xpbAREminicoll-luciferase/pGL3-puro). The expression of the reporter gene constitutes an indication of the transcriptional activity of hAR. It also encodes a protein allowing the cells expressing it to resist a treatment with puromycin. The plasmid encoding hAR contains the cDNA of hAR under the control of the Cytomegalovirus (CMV) promoter. It also encodes a protein allowing the cells expressing it to resist a treatment with neomycin. The treatment of cells with increasing amounts of potentially agonistic compounds will increase the expression of the reporter gene. To detect antagonists, on the other hand, increasing doses of test compounds are tested in the presence of […] of DHT. The expression of the reporter gene, which is constant for each dose of DHT, decreases when the concentration of the test compounds increases.
The functional response test is conducted on 96-well plates. The HALP2 cells are seeded (20,000 cells per well) in culture medium (DMEM with phenol red, 1% de Pen-Strep, 1% of non-essential amino acids, 10% of fetal bovine serum, 400 μg/mL Geneticin and 0.150 puromycin) on day 1. After 24 hours incubating at 37° C., 5% CO2, high humidity (day 2) the medium is removed and refreshed with test medium (DMEM without phenol red supplemented, 1% de Pen-Strep, 1% of non-essential amino acids and 5% of desteroidised foetal bovine serum). After another 24 hours incubating at 37° C., 5% CO2, high humidity (day 3), the medium is renewed once more before the phase of stimulation.
The cells are placed in contact with the compounds for 24 hours at 37° C., 5% CO2, high humidity. On day 4 the medium is then removed and the luciferase activity reading reagent is placed in contact with the cells in accordance with the manufacturer's instructions (SteadyLite, Perkin-Elmer). The luminescence produced is detected on an Envision reader (Perkin-Elmer). […]
The determination of the relative agonism/antagonism of a compound is obtained by comparing the maximal activation obtained with said compound and the activation obtained with DHT alone (100%).

[2] = system: castrated immature young rats; assay: Adapted model of Hershberger's test; assay type: in vivo, Sprague Dawley rats; settings: Rattus norvegicus, po, 96 h, ORX control = 0%, SHAM control = 100%, per os daily for 4 days, dose tested 10 mg/kg
Method: The selective modulating activity of the androgen receptor is tested in a model of castrated immature young rats. This model, which is widely recognised for evaluating the anabolic effects of androgen compounds on the muscles and on the prostate, has been described by Hershberger et al. 1953 Proc. Soc. Expt. Biol. Med. 83:175.
The method is based on the measurement of the well-known effects of androgens on the growth of the muscles and the accessory male sex organs in animals, and also in men. The consequences of castration appear in the form of a rapid involution and atrophy of the prostate and the seminal vesicles and of the anus-lifting muscle (levator ani). This effect may be completely compensated by an exogeneous administration of androgen, in particular of testosterone. The model is thus used to determine the capacity of the tested molecules to maintain the weight of the accessory sex and muscle organs in immature castrated rats, and therefore their androgenic efficacy.
Immature young Sprague Dawley rats (4 to 5 weeks old) weighing approximately 140-160 g (Charles River, Les Oncins, FRANCE) are distributed randomly in various groups and are kept in an environment at 22±2° C. with an alternating day/night cycle of 12 hours and ad libitum access to food and drink.
On day 0 (seven days before commencement of the first treatment) the rats are weighed individually then anaesthetised with an intraperitoneal dose of Ketamine/xylazine (85/15 mg/kg, approximately 2 ml/kg). Each animal is then placed on a sterile field and the abdomen and the scrotum are disinfected with Betadine and 70% alcohol. In the case of the orchidectomised control animals (ORX), the testicles are removed via an incision in the middle of the scrotum. A sterile suture is then made to ligature the supra-testicular portion of the tissue prior to surgical section of each testicle. The groups of animals to be treated by the tested compounds are operated on in an identical manner. In the case of the intact control animals (SHAM), the testicles are similarly extracted and reintroduced delicately to their original location. The site of surgical intervention is then sutured using sterile suture thread, and the site is disinfected again by application of Betadine. Each animal is then kept under a sterile pad until it awoke, before being returned to its cage. The animals are kept in an environment at 22±2° C. with an alternating day/night cycle of 12 hours and ad libitum access to food and drink. The animals are treated with the molecules to be tested from post-surgery day 7 and until day 10 preceding sacrifice (day 11).
The rats are split into groups and treated daily from day 7 to day 10 under the conditions defined below: • 1. SHAM control group: Vehicle (PEG400/DMSO/water; 79/1/20) administered per os. • 2. ORX control group: Vehicle (PEG400/DMSO/water; 79/1/20) administered per os. • 3. Treated ORX group: The tested compounds are administered individually per os in suspension in the vehicle described above, in a dose of 10 mg/kg.
After treatment for 4 successive days, the animals are decapitated using a guillotine. The levator ani and the ventral prostate are removed and weighed individually. For comparing inter-experimental data, the weight of each organ is standardised and expressed in milligrammes per 100 g of the weight of the animal (W). For each organ, the average of the standardised weights of the ORX control group is fixed by definition at 0% and the average of the standardised weights of the SHAM control group is fixed by definition at 100%. The efficacy of each product is expressed as a percentage and calculated using the following formula: (Wtreated−WORX)/(WSHAM−WORX)×100
A subsequent ANOVA test is used for statistical analysis to identify the differences between groups.

[3] = maximal activation by the compound compared with DHT alone (100%), HALP2 cells
[4] = agonism: concentration inducing 50% of the maximum agonistic effect of the tested compound, HALP2 cells, 24 hours, read-out: EC50
[5] = levator ani weight, read-out: Anabolic activity %
[6] = ventral prostate weight, read-out: Androgenic activity % (Prostate)

| SMILES | Emax [1, 3] [%] | EC50 [1, 4] [nM] | response vs control in vivo at 10 mg/kg [2, 5] [%] | response vs control in vivo at 10 mg/kg [2, 6] [%] | EC50 [1] [nM] | Emax [1] [%] | % effect relative to DHT (100%) [1, 3] |
| --- | --- | --- | --- | --- | --- | --- | --- |
| CCC(O)C1(c2ccccc2)C(=O)N(c2ccc(C#N)c(C(F)(F)F)c2)C(=O)N1C (single isomer, unassigned) [Example 2, 4-[2,5-Dioxo-4-(1-hydroxypropyl)-3-methyl-4-phenylimidazolidin-1-yl]-2-trifluoromethylbenzonitrile] | 0 to 5 |  |  |  |  |  |  |
| CC(C)N1C(=O)N(c2ccc(C#N)c(C(F)(F)F)c2)C(=O)C1(CO)c1ccccc1 (stereo not drawn) [Example 17, 4-[2,5-Dioxo-4-(hydroxymethyl)-3-(1-methylethyl)-4-phenylimidazolidin-1-yl]-2-trifluoromethylbenzonitrile] | 41 to 50 | 101 to 500 | 75 to 100 | 50 to 75 |  |  |  |
| CC(C)[C@H](N)C(=O)OCC1(c2ccccc2)C(=O)N(c2ccc(C#N)c(C(F)(F)F)c2)C(=O)N1C (stereo partly drawn) [Example 25, (2S)-1-[1-(4-Cyano-3-trifluoromethylphenyl)-2,5-dioxo-3-methyl-4-phenylimidazolidin-4-yl]methoxy-3-methyl-1-oxobutan-2-aminium chloride] |  |  |  |  | 11 to 100 | 21 to 40 |  |
| CN1C(=O)N(c2ccc(C#N)c(C(F)(F)F)c2)C(=O)C1(COP(=O)(O)O)c1ccccc1 (stereo not drawn) [Example 24, [1-(4-Cyano-3-trifluoromethylphenyl)-2,5-dioxo-3-methyl-4-phenylimidazolidin-4-yl]methyl dihydrogen phosphate] | 21 to 40 | 0.01 to 10 |  |  |  |  |  |
| Cc1cccc(C2(CO)C(=O)N(c3ccc(C#N)c(C(F)(F)F)c3)C(=O)N2C)c1 (stereo not drawn) [Example 21, 4-[2,5-Dioxo-4-hydroxymethyl-3-methyl-4-(3-methylphenyl)imidazolidin-1-yl)-2-trifluoromethylbenzonitrile] | 6 to 20 | 501 to 1000 | 0.5 to 25 | 0 |  |  |  |
| CN1C(=O)N(c2ccc(C#N)c(C(F)(F)F)c2)C(=O)C1(CO)c1ccc(C#N)cc1 (stereo not drawn) [Example 13, 4-[4-(4-Cyanophenyl)-2,5-dioxo-4-hydroxymethyl-3-methylimidazolidin-1-yl)-2-trifluoromethylbenzonitrile] | 0 to 5 |  | 0.5 to 25 | 0.5 to 25 |  |  |  |
| CN1C(=O)N(c2ccc(Cl)c(Cl)c2)C(=O)C1(CO)c1ccccc1 (stereo not drawn) [Example 16, 1-(3,4-Dichlorophenyl)-4-hydroxymethyl-3-methyl-4-phenylimidazolidine-2,5-dione] | 6 to 20 | 101 to 500 | 75 to 100 | 0.5 to 25 |  |  |  |
| C#CCN1C(=O)N(c2ccc(C#N)c(C(F)(F)F)c2)C(=O)C1(CO)c1ccccc1 (stereo not drawn) [Example 19] | 6 to 20 | 101 to 500 | 75 to 100 | 25 to 50 |  |  |  |
| CN1C(=O)N(c2ccc(C#N)c(C(F)(F)F)c2)C(=O)C1(CO)c1cccc(C#N)c1 (stereo not drawn) [Example 14, 4-[4-(3-Cyanophenyl)-2,5-dioxo-4-hydroxymethyl-3-methylimidazolidin-1-yl)-2-trifluoromethylbenzonitrile] | 21 to 40 | 101 to 500 | 75 to 100 | 25 to 50 |  |  |  |
| CN1C(=O)N(c2ccc(C#N)c(C(F)(F)F)c2)C(=O)C1(CO)c1cccc(Cl)c1 (stereo not drawn) [Example 9] | 41 to 50 | 0.01 to 10 | 50 to 75 | 0.5 to 25 |  |  |  |
| CN1C(=O)N(c2ccc(C#N)c(C(F)(F)F)c2)C(=O)C1(COC(=O)CCC(=O)O)c1ccccc1 (stereo not drawn) [Example 26, 4-[1-(4-Cyano-3-trifluoromethylphenyl)-2,5-dioxo-3-methyl-4-phenylimidazolidin-4-yl]methoxy-4-oxobutanoic acid] |  |  |  |  | 11 to 100 | 21 to 40 |  |
| N#Cc1ccc(N2C(=O)NC(CO)(c3ccccc3)C2=O)cc1C(F)(F)F (stereo not drawn) [Example 20, 4-[2,5-Dioxo-4-hydroxymethyl-4-phenylimidazolidin-1-yl]-2-trifluoromethylbenzonitrile] |  |  |  |  |  |  | § (0-5%) |
| N#CCN1C(=O)N(c2ccc(C#N)c(C(F)(F)F)c2)C(=O)C1(CO)c1ccccc1 (stereo not drawn) [Example 18, 4-[3-Cyanomethyl-2,5-dioxo-4-(hydroxymethyl)-4-phenylimidazolidin-1-yl]-2-trifluoromethylbenzonitrile] | 6 to 20 | 501 to 1000 | 75 to 100 | 0.5 to 25 |  |  |  |

From patent US8383608B2, “Imidazolidine compounds as androgen receptor modulators” (Dart Therapeutics LLC, priority 2008, dated 2013)
